Test results: article PMC8151276, “An Integrated Approach toward NanoBRET Tracers for Analysis of GPCR Ligand Engagement” (Molecules, 2021)
Values belong to the compound of their own block, whether it stands above or below them.

Tests used:
Type in all cases: binding
[1] = target: T1, CCR2 (Homo sapiens, UniProt P41597); test: NanoBRET screen HiBiT-CCR2 in HEK293
T1 construct: purchased Promega (in-house HiBiT-GPCR construct library, NanoBRET)
Procedure: (§1) Each tracer candidate was screened across the entire library of HiBiT-GPCR constructs using NanoBRET as the detection modality. As depicted in Figure 4A, the specificity of interactions was evaluated through decrease in BRET due to competitive displacement of a bound tracer by excess parental compound. Each tracer was analyzed for binding to each HiBiT-GPCR fusion in the absence and in the presence of competing parental compound. Briefly, HEK293 cells were transfected with HiBiT-GPCR constructs diluted into promoterless DNA to reduce expression and maximize translocation to the cell surface. Each tracer candidate was then screened at concentrations of 1 μM and 0.1 μM across cells expressing these fusions. Cells were treated for 1.5 h with tracer either alone or in the presence of 20 μM competing parental compound (i.e., control). BRET was measured upon addition of purified LgBiT and subsequent complementation with HiBiT genetically fused to a GPCR. The specificity of interactions was assessed through a decrease in BRET signal due to competitive displacement of the bound tracer. To further gauge the robustness of these interactions, the fold response over the control (i.e., BRETtracer/BRETcontrol) was calculated. We chose a 1.5-fold response, which translates to ≥7-fold signal over noise as the minimal threshold required to score an interaction as positive. […]. Below we highlight the screening results obtained for our exemplary fluorescent tracers based on Clozapine, Amitriptyline and AZD1283.
(§2) HiBiT-GPCR DNA constructs were diluted in 10 mM Tris pH 8 to a final concentration of 0.01 μg/μL, arrayed in 96-well plates and stored at −20 °C. For transfection, HEK293 cells were suspended in Opti-MEM (without phenol red) supplemented with 2% fetal bovine serum (Seradigm) and 100 units/mL penicillin–streptomycin (Gibco) at a final concentration of 220,000 cells/mL and dispensed into white 96-well plates at 90 μL/well. Subsequent transfections and screens were carried using an Agilent Bravo Automated Liquid Handling Platform. First, the 96-well HiBiT DNA arrays were diluted 25-fold in Opti-MEM (without serum or phenol red) to a final concentration of 0.0004 μg/μL and 20 μL of the diluted DNAs were transferred into new 96-well plates. Next, promoterless carrier DNA (1 μg/μL) was diluted 25-fold (0.04 μg/μL) and then dispensed into the diluted arrays at 20 μL/well. Following brief mixing, Viafect transfection reagent (Promega) diluted 16-fold into Opti-MEM was dispensed into the plates at 40 μL/well. After mixing by pipetting, plates were incubated for 10 min on the pipetting station deck. The DNA-transfection reagent complexes were then added to plates containing cells. To facilitate the screen, 10 μL of DNA-transfection reagent complexes were added in duplicates to the top 4 and bottom 4 rows, resulting in two identical 48-well arrays per plate. Plates with transfected cells were incubated for 18–20 h at 37 °C/5% CO2. A screen of each tracer across the entire library using two different concentrations requires duplicate plates of transfected cells. Depending on the number of tracers being screened, transfections can be scaled up using the same ratios. The next day, for each tracer, four 20× screening solutions in tracer dilution buffer (Promega) were prepared: two duplicates at final concentration of 20 μM and two duplicates at a final concentration of 2 μM. A competing unmodified compound was added to one of each duplicate at a final concentration of 400 μM. The four resulting solutions were diluted 4-fold in Opti-MEM without serum or phenol red to generate 5× solutions (5 µM and 0.5 µM tracer +/− 100 μM competing compound). To screen the library, a BioTek MultiFlo FX liquid dispenser was used to dispense 22.5 µL of tracer solution to the top 4 rows and 22.5 µL tracer + competing compound solution to the 4 bottom rows. Plates were briefly mixed on an orbital shaker and incubated for 1.5 h at room temperature. […]

[2] = target: T2, OXTR (Homo sapiens, UniProt P30559); test: NanoBRET screen HiBiT-OXTR in HEK293
T2 construct: purchased Promega (in-house HiBiT-GPCR construct library, NanoBRET)
T2 sequence (P30559 1-389): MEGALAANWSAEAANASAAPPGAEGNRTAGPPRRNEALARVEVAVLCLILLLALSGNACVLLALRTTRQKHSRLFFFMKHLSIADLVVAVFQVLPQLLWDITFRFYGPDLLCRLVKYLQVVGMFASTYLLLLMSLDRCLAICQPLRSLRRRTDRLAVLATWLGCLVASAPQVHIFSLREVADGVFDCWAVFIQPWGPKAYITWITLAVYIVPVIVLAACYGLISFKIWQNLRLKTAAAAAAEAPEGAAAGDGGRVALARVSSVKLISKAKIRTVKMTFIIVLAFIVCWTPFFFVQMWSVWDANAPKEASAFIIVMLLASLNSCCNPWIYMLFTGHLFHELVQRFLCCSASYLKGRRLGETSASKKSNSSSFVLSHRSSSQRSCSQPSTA
Procedure: as §1, §2

[3] = target: T3, AGTR2 (Homo sapiens, UniProt P50052); test: NanoBRET screen HiBiT-AGTR2 in HEK293
T3 construct: purchased Promega (in-house HiBiT-GPCR construct library, NanoBRET)
T3 sequence (P50052 1-363): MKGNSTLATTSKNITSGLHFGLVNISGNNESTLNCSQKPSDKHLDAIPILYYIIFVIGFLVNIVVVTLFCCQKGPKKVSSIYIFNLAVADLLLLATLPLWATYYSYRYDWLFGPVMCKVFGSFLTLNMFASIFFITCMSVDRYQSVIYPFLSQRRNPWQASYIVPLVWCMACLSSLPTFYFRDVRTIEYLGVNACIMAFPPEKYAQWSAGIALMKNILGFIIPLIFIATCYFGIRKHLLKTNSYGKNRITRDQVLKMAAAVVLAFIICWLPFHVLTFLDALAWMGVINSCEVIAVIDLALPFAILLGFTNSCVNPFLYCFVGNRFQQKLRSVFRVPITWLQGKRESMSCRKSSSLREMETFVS
Procedure: as §1, §2

[4] = target: T4, CCR5 (Homo sapiens, UniProt P51681); test: NanoBRET screen HiBiT-CCR5 in HEK293
T4 construct: purchased Promega (in-house HiBiT-GPCR construct library, NanoBRET)
T4 sequence (P51681 whole entry): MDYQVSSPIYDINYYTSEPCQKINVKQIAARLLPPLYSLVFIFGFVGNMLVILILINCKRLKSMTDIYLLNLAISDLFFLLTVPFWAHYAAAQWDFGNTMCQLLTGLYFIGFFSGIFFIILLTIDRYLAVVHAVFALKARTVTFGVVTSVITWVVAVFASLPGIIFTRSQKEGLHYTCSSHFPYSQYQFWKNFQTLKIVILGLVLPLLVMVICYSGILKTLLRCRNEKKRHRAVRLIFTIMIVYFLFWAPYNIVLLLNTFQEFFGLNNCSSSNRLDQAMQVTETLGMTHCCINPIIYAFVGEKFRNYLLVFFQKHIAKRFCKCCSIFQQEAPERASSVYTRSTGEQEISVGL
Procedure: as §1, §2

[5] = tracer at 0.1μM, listed as amitriptyline-b-2-NB590
[6] = tracer at 1μM, listed as amitriptyline-b-2-NB590

T1 sequence (P41597 whole entry): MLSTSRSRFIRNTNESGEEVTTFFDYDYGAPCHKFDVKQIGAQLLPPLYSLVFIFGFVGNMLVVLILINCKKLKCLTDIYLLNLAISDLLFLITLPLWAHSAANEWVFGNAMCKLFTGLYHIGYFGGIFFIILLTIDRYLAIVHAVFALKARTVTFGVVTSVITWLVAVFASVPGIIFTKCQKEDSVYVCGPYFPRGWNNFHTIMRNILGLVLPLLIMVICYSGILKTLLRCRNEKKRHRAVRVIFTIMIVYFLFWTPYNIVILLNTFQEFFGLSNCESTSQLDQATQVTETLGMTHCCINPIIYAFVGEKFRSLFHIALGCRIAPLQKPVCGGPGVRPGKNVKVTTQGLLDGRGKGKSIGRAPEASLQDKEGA

NanoBRET Fold Response ([1]; CCR2, 0.1μM): 0.93 | NanoBRET Fold Response ([1]; CCR2, 1μM): 1.04 | NanoBRET Fold Response ([2]; OXTR, 0.1μM): 1.07 | NanoBRET Fold Response ([2]; OXTR, 1μM): 1.07 | NanoBRET Fold Response ([3]; AGTR2, 0.1μM): 1.13 | NanoBRET Fold Response ([3]; AGTR2, 1μM): 1.17 | NanoBRET Fold Response ([4]; CCR5, 0.1μM): 1.02 | NanoBRET Fold Response ([4]; CCR5, 1μM): 1.04
Structure (SMILES): CCOC(=O)c1cc(C#N)c(N2CCC(C(=O)NS(=O)(=O)Cc3ccccc3/C=C/C(=O)NCCNC(=O)CCc3ccc4n3[B-](F)(F)[N+]3=C(c5ccc[nH]5)C=CC3=C4)CC2)nc1C [AZD1283-1-NB590]

NanoBRET Fold Response ([1]; CCR2, tracer 0.1μM): 0.93 | NanoBRET Fold Response ([1]; CCR2, tracer 1μM): 0.98 | NanoBRET Fold Response ([2]; OXTR, tracer 0.1μM): 1.06 | NanoBRET Fold Response ([2]; OXTR, tracer 1μM): 1.04 | NanoBRET Fold Response ([3]; AGTR2, tracer 0.1μM): 0.98 | NanoBRET Fold Response ([3]; AGTR2, tracer 1μM): 1.04 | NanoBRET Fold Response ([4]; CCR5, tracer 0.1μM): 1.00 | NanoBRET Fold Response ([4]; CCR5, tracer 1μM): 1.11
Structure (SMILES): N#CN=C(NCCCOc1cccc(CN2CCCCC2)c1)NCCNC(=O)CCOCCOCCOCCOCCNC(=O)CCc1ccc2n1[B-](F)(F)[N+]1=C(c3ccc[nH]3)C=CC1=C2 [Aminopotentidine-2-NB590]

NanoBRET Fold Response ([1]; 0.1μM tracer): 1.06 | NanoBRET Fold Response ([1]; 1μM tracer): 0.97 | NanoBRET Fold Response ([2]; 0.1μM tracer): 1.11 | NanoBRET Fold Response ([2]; 1μM tracer): 0.94 | NanoBRET Fold Response ([3]; 0.1μM tracer): 1.23 | NanoBRET Fold Response ([3]; 1μM tracer): 0.87 | NanoBRET Fold Response ([4]; 0.1μM tracer): 1.29 | NanoBRET Fold Response ([4]; 1μM tracer): 0.63
Structure (SMILES): COc1ccc2c(n1)c(CCNC(C)=O)cn2CCNC(=O)CCc1ccc2n1[B-](F)(F)[N+]1=C(c3ccc[nH]3)C=CC1=C2 [Azamelatonin-1-NB590]

Further lines, the compound ahead of its results:

Structure (SMILES): CN(C)CCC=C1c2ccccc2CCc2ccc(C(=O)NCCNC(=O)CCOCCOCCOCCOCCNC(=O)CCc3ccc4n3[B-](F)(F)[N+]3=C(c5ccc[nH]5)C=CC3=C4)cc21 [Amitriptyline-a-2-NB590]
NanoBRET Fold Response ([1]; tracer at 0.1μM): 1.19 | NanoBRET Fold Response ([1]; tracer at 1μM): 1.05 | NanoBRET Fold Response ([2]; tracer at 0.1μM): 0.99 | NanoBRET Fold Response ([2]; tracer at 1μM): 1.09 | NanoBRET Fold Response ([3]; tracer at 0.1μM): 1.01 | NanoBRET Fold Response ([3]; tracer at 1μM): 0.98 | NanoBRET Fold Response ([4]; tracer at 0.1μM): 0.99 | NanoBRET Fold Response ([4]; tracer at 1μM): 1.01

Structure (SMILES): CN(C)CCC=C1c2ccccc2CCc2ccc(C(=O)NCCNC(=O)CCOCCOCCOCCOCCNC(=O)CCc3ccc4n3[B-](F)(F)[N+]3=C(c5ccc[nH]5)C=CC3=C4)cc21 [Amitriptyline-b-2-NB590]
NanoBRET Fold Response ([1]; tracer at 0.1μM): 0.99 | NanoBRET Fold Response ([1]; tracer at 1μM): 0.89 | NanoBRET Fold Response [2, 5]: 1.08 | NanoBRET Fold Response [2, 6]: 1.01 | NanoBRET Fold Response ([3]; tracer at 0.1μM): 0.84 | NanoBRET Fold Response [3, 6]: 0.87 | NanoBRET Fold Response [4, 5]: 1.14 | NanoBRET Fold Response [4, 6]: 1.07

Structure (SMILES): CN(CCC=C1c2ccccc2CCc2ccccc21)C(=O)CCOCCOCCOCCOCCNC(=O)CCc1ccc2n1[B-](F)(F)[N+]1=C(c3ccc[nH]3)C=CC1=C2 [Amitriptyline-e-2-NB590]
NanoBRET Fold Response ([1]; tracer at 1μM): 0.90 | NanoBRET Fold Response ([3]; tracer at 1μM): 0.97 | NanoBRET Fold Response ([4]; tracer at 1μM): 0.97
